Assay [1] deals with T1, Prostaglandin G/H synthase 2 (Homo sapiens) (UniProt P35354).
T1 sequence (whole entry): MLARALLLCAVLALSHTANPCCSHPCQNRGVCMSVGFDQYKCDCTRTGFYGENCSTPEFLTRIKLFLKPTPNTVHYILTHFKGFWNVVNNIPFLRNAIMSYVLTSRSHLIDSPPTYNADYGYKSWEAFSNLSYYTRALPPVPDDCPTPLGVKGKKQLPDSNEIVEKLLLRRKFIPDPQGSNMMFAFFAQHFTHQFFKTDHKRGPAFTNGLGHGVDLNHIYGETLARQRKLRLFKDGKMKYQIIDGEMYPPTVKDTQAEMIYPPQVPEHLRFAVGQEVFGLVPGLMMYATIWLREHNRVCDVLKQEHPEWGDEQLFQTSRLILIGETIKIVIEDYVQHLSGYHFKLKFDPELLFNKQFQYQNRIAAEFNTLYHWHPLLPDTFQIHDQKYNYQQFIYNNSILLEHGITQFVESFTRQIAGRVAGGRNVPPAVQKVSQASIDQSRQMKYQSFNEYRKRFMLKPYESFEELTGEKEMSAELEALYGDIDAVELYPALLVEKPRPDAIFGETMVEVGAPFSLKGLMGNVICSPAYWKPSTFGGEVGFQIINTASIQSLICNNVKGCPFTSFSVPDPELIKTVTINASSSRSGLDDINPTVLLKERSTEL
Nature of the assay: Inhibition of COX2 at 400 uM after 5 mins by spectrophotometric analysis.

Assay [2] addresses T2, Prostaglandin G/H synthase 1 (Homo sapiens, UniProt P23219). Nature of the assay: Inhibition of COX1 at 400 uM after 5 mins by spectrophotometric analysis.
In assay [3] the target is T2, Prostaglandin G/H synthase 1. Nature of the assay: Inhibition of COX1 after 5 mins by spectrophotometric analysis.
For assay [4], the target named is T3, Prostaglandin G/H synthase 2 (Homo sapiens, UniProt P35354).
T3 sequence (P35354 whole entry): T1 sequence (whole entry)
The assay is described as follows: Inhibition of COX2 after 5 mins by spectrophotometric analysis.

Assay [5] addresses T3, Prostaglandin G/H synthase 2. The assay is described as follows: Uncompetitive inhibition of COX2 by Lineweaver-Burk plot analysis.

T2 sequence (P23219 whole entry): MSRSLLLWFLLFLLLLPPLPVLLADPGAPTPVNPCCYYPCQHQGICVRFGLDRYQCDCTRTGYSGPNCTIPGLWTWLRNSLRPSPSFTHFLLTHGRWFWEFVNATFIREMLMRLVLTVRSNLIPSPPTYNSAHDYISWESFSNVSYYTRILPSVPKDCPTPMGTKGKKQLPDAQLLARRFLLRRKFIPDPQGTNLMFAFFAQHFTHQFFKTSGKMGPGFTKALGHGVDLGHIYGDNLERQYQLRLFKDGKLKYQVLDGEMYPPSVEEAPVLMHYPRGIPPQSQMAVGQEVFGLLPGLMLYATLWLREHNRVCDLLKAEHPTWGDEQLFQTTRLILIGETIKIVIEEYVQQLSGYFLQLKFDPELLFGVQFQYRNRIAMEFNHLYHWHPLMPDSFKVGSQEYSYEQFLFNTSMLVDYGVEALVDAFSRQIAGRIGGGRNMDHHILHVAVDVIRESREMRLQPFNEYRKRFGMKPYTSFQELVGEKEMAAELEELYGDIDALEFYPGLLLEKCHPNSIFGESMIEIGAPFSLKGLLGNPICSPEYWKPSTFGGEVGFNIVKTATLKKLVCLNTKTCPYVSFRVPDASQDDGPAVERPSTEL

The term inhibition denotes how much of the control response was suppressed. A higher inhibition goes with a strong effect. Turning to `CC(=O)Oc1ccccc1C(=O)O`, in assay [1], the inhibition was found to be 19.3%.

As to `COc1cc(/C=C/C(=O)NCCc2c[nH]c3ccc(O)cc23)ccc1O`, the inhibition was found to be 18.8% in assay [1] and 2.7% in assay [2].

On to `COc1ccc(/C=C/C(=O)NCCc2c[nH]c3ccc(O)cc23)cc1`, for which the inhibition in assay [1] turned out to be 6.5%; in assay [2], 21.3%.

For the molecule `COc1ccc(/C=C/C(=O)NCCc2c[nH]c3ccc(O)cc23)cc1O`, the inhibition in assay [1] is 8%; in assay [2], 7%.

In the case of `COc1ccc(/C=C/C(=O)NCCc2c[nH]c3ccc(O)cc23)cc1OC`, the inhibition stood at 18.2% in assay [1] and 29.9% in assay [2].

As to `O=C(/C=C/c1ccc(O)cc1)NCCc1c[nH]c2ccc(O)cc12`, the inhibition in assay [1] came to 13.9%; in assay [2], 12.5%.

Consider `O=C(/C=C/c1ccccc1)NCCc1c[nH]c2ccc(O)cc12`, for which the results for the inhibition in assay [1] and in assay [2] were 8.2% and 18.2%, respectively.

As a reminder, the IC50 is the concentration needed to halve the response being measured. A higher IC50 goes with weaker potency in that assay. Regarding `O=C(O)/C=C/c1ccc(O)c(O)c1` [CAFFEIC ACID], the IC50 in assay [3] was more than 400 µM.

In general, Ki refers to the dissociation constant of the complex between target and ligand, obtained from inhibition or displacement. A low value points to tighter binding. With `O=C(/C=C/c1ccc(O)c(O)c1)NCCc1c[nH]c2ccc(O)cc12` [N-CAFFEOYLSEROTONIN], the inhibition in assay [1] stood at 70.5%; in assay [2] it was 40.6%. The IC50 in assay [4] was 42.5 µM; in assay [3], more than 400 µM. The molecule further gave a Ki in assay [5] of 65.5 µM.

Regarding `COc1cc(/C=C/C(=O)NCCc2c[nH]c3ccc(O)cc23)cc(OC)c1O` [N-SINAPOYL SEROTONIN], the inhibition turned out to be 27.2% in assay [1] and 44.9% in assay [2]. Besides, the half-inhibitory concentration (IC50) in assay [4] and in assay [3] was more than 400 µM in each case.

Take `NCCc1c[nH]c2ccc(O)cc12` [SEROTONIN]: the IC50 in assay [4] and in assay [3] was more than 400 µM in each case.

Consider `COc1cc(/C=C/C(=O)O)cc(OC)c1O` [SINAPINATE], for which the results for the IC50 in assay [4] and in assay [3] were 28 µM and 39.2 µM, respectively.

(Values after ChEMBL document CHEMBL2010645, “N-Caffeoyl serotonin as selective COX-2 inhibitor” (Bioorg Med Chem Lett, 2012).)
